From patent US20260097012A1, “COMPOSITIONS AND METHODS FOR TREATING GRAFT-RELATED ARRHYTHMIA” (BlueRock Therapeutics LP, priority 2022, published 2026)

Tested on: graft related arrhythmias (sustained VT)
Test: Treatment of graft-induced arrhythmia in pig model (myocardial infarction plus cardiomyocyte graft)
Details: pig P2, after VT on day 10/11; by day 13 onwards

CCCCc1oc2ccccc2c1C(=O)c1cc(I)c(OCCN(CC)CC)c(I)c1 [amiodarone]
effect of adjusting the dosage on rhythm: effective at achieving normal sinus rhythm
